Here are results for 6 compounds from PubChem BioAssay (NCI).

Among the test systems are UACC-257 melanoma; TK-10 renal; EKVX NSCLC; K-562 leukemia; HL-60(TB) leukemia; HCT-116 colon; SF-268 CNS; HS 578T breast; LOX IMVI melanoma; HOP-62 NSCLC.
What all share (experiment): NCI-60 cell line screen, 48 h

Where “and” joins values, the source holds several entries; their conditions need not be identical. Equal values may be shown once.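 Briefly, cells in 96-well plates were exposed to five compound concentrations for 48 h, and endpoints were estimated by linear interpolation. GI50 marks 50% less growth. TGI denotes the concentration required for complete inhibition of growth.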

In the case of `CN(C)CCCOc1ccc(-c2ccc3ncc4c(c3c2)n(C2CCOCC2)c(=O)n4C)cn1`, the GI50 in the assay on UACC-257 melanoma was 1.94 µM; in the assay on TK-10 renal, 0.286 µM; in the assay on EKVX NSCLC, 0.975 µM; in the assay on K-562 leukemia, 9.07 µM; in the assay on HL-60(TB) leukemia, 2.48 µM; with HCT-116 colon, 3.12 µM. For the same compound, the GI50 in the assay on SF-268 CNS was 2.04 µM; with HS 578T breast, 0.902 µM; in the assay with LOX IMVI melanoma it was 1.13 µM; with HOP-62 NSCLC it was 1.87 µM. The TGI was determined as 12.2 µM with UACC-257 melanoma; 2.91 µM in the assay on TK-10 renal; 12.2 µM with EKVX NSCLC; 43.4 µM with K-562 leukemia; 15.9 µM in the assay on HL-60(TB) leukemia; 16.6 µM in the assay with HCT-116 colon. The TGI in the assay on SF-268 CNS is 29.5 µM; in the assay with HS 578T breast, 10.1 µM; with LOX IMVI melanoma it was 6.51 µM; in the assay with HOP-62 NSCLC, 12.5 µM.

Take `COc1cc(OC)cc(N(CCNC(C)C)c2ccc3ncc(-c4cnn(C)c4)nc3c2)c1`: the GI50 with UACC-257 melanoma was 9.49 µM; in the assay with TK-10 renal it was 2.81 µM; with EKVX NSCLC it was 13.1 µM; with K-562 leukemia, 2.11 µM; with HL-60(TB) leukemia, 7.37 µM; in the assay on HCT-116 colon, 4.55 µM. Moreover, the GI50 was 3.53 µM in the assay with SF-268 CNS, 1.49 µM with HS 578T breast, 2.71 µM with LOX IMVI melanoma and 4.63 µM in the assay on HOP-62 NSCLC. Further, the TGI in the assay with UACC-257 melanoma was found to be 23.4 µM; with TK-10 renal, 12.1 µM; in the assay with EKVX NSCLC, 27 µM; with K-562 leukemia, 10.8 µM; in the assay on HL-60(TB) leukemia, 22.7 µM; in the assay with HCT-116 colon, 17 µM. For the same compound, the TGI with SF-268 CNS was determined as 19 µM; in the assay with HS 578T breast it was 6.19 µM; in the assay on LOX IMVI melanoma, 11.8 µM; in the assay with HOP-62 NSCLC, 20 µM.

Consider `Cc1cc(=O)oc2cc(OC(=O)N(C)C)c(Cl)cc12`, for which the TGI in the assay with UACC-257 melanoma, in the assay on TK-10 renal, in the assay on EKVX NSCLC, in the assay with K-562 leukemia, in the assay on HL-60(TB) leukemia and with HCT-116 colon was above 100 µM throughout. The TGI with SF-268 CNS was above 100 µM; in the assay on HS 578T breast, above 100 µM; in the assay with LOX IMVI melanoma it was above 100 µM; in the assay on HOP-62 NSCLC, 79 µM.

In the case of `O=S(=O)(Nc1ccccc1Cl)c1ccc(-c2cnc(C3CC3)o2)cc1`, the GI50 with UACC-257 melanoma was 19.2 µM; in the assay on TK-10 renal, 11.8 µM; with EKVX NSCLC it was 4.35 µM; in the assay on K-562 leukemia, 0.0845 µM; in the assay on HL-60(TB) leukemia, 0.274 µM; in the assay with HCT-116 colon, 0.401 µM. The GI50 in the assay with SF-268 CNS is 12.4 µM; with HS 578T breast it was 0.346 µM; in the assay with LOX IMVI melanoma, 0.79 µM; in the assay with HOP-62 NSCLC, 0.501 µM. The TGI in the assay with UACC-257 melanoma was 75 µM; in the assay with TK-10 renal, above 100 µM; in the assay on EKVX NSCLC, above 89.1 µM; in the assay with K-562 leukemia it was above 100 µM; in the assay with HL-60(TB) leukemia, 0.886 µM; with HCT-116 colon, above 75.5 µM. Besides, the TGI was above 100 µM in the assay on SF-268 CNS, above 94.9 µM in the assay with HS 578T breast, above 90.8 µM with LOX IMVI melanoma and above 100 µM with HOP-62 NSCLC.

Turning to `CN[C@H]1C=C[C@@H]2/C=C(C)/C=C/[C@@H](C)[C@H]([C@H](C)[C@H](O)[C@@H](C)NC(C)=O)OC(=O)/C=C/C=C(C)\C=C\[C@]2(C)C1`, the TGI with UACC-257 melanoma was above 49 µM; in the assay on TK-10 renal, above 49 µM; with EKVX NSCLC, above 49 µM; in the assay on K-562 leukemia, above 49 µM; in the assay with HL-60(TB) leukemia, 35.7 µM; with HCT-116 colon, 40.4 µM. Moreover, the TGI in the assay with SF-268 CNS is above 49 µM; with HS 578T breast, above 49 µM; with LOX IMVI melanoma it was 0.00504 µM; in the assay with HOP-62 NSCLC it was above 49 µM. The GI50 is 0.0611 µM and 0.259 µM in the assay with TK-10 renal; 0.0202 µM in the assay with K-562 leukemia; 0.0332 µM in the assay on HL-60(TB) leukemia; < 0.001 µM and 0.0049 µM in the assay on HCT-116 colon; 0.0821 µM and 0.042 µM in the assay with SF-268 CNS; 0.0597 µM and 0.0123 µM with HS 578T breast. For the same compound, the GI50 in the assay on LOX IMVI melanoma is 0.0049 µM; with HOP-62 NSCLC, 0.00765 µM.

Consider `CCCNNC(=O)/C=C/c1ccc(CNCCc2c(C)[nH]c3ccccc23)cc1`, for which the GI50 is 0.0323 µM in the assay on UACC-257 melanoma; 0.00506 µM in the assay with TK-10 renal; 0.074 µM with EKVX NSCLC; 0.0111 µM with K-562 leukemia; 0.0123 µM in the assay with HL-60(TB) leukemia; 0.00887 µM in the assay on HCT-116 colon. Besides, the GI50 in the assay on SF-268 CNS was 0.0744 µM; in the assay on HS 578T breast it was 0.0437 µM; in the assay on LOX IMVI melanoma, 0.0368 µM; with HOP-62 NSCLC, 0.031 µM. Also, the TGI in the assay with UACC-257 melanoma was determined as 0.627 µM; with TK-10 renal it was 0.133 µM; in the assay with EKVX NSCLC it was 3.73 µM; with K-562 leukemia, 3.78 µM; with HL-60(TB) leukemia, 3.96 µM; in the assay on HCT-116 colon, 0.324 µM. Moreover, the TGI in the assay with SF-268 CNS came to 0.951 µM; in the assay with HS 578T breast, 0.621 µM; in the assay with LOX IMVI melanoma, 0.0797 µM; with HOP-62 NSCLC it was 0.785 µM.
